Experimental data from US11766403B2, “Peptide-targeted liposomal delivery for treatment, diagnosis, and imaging of diseases and disorders” (University of Maryland, Baltimore, priority 2019, dated 2023).
Where no end group is shown, it is not given here.

Columns and labels:
[1] = test system: human umbilical vein endothelial cells (HUVEC); assay: Binding of FITC-labeled ART-2 peptide to endothelial cells in vitro; format: cell-based; settings: 2 h
Description: (§1) FIG. 4, comprising FIG. 4A through FIG. 4D, depicts in vitro and in vivo binding of ART-2 peptides. FIG. 4A depicts the binding of fluorescein isothiocyanate (FITC)-labeled ART-2 peptide to human umbilical vein endothelial cells (HUVEC) in vitro (HUVEC were treated with ART-2-FITC peptides for 2 h at the indicated concentrations). A representative histogram is shown. FIG. 4B depicts HUVEC that were stained with ART-2-FITC peptide at 0.5 μM concentration, PE-labeled CD31 (a marker for endothelial cells), and DAPI (for nucleus staining) and examined under a fluorescence microscope. FIG. 4C depicts in vivo distribution of Cyanine 7 (Cy7)-labeled ART-2 peptide: real-time fluorescence imaging of arthritic rats at 4 h time point after i.v. injection of the peptide following the procedure described in the legend to FIG. 7. FIG. 4D depicts images of ex-vivo fluorescence of different organs harvested from arthritic rats at 4 h after i.v. injection of ART-2-Cy7-peptide.

[2] = test system: rat arthritic joints; assay: In vivo distribution of Cy7-labeled ART-2 peptide (homing to arthritic joints); settings: i.v., arthritic rats, 4 h
Description: as §1

CKPFDRALC (not fully specified; cysteine pairing not given here) [ART-2, novel tissue-targeting peptide]
binding of peptide to endothelial cells [1]: avid binding to endothelial cells
homing to arthritic joints [2]: preferential homing to rat arthritic joints
